{
  "source": "ChEMBL document CHEMBL1201862",
  "about": "“PubChem BioAssay data set” (2004)",
  "test_in_all_cases": "NCI anticancer screen, dose series, 48 h",
  "key": {"786-0": {"test_system": "786-0"}, "A498": {"test_system": "A498"}, "A549": {"test_system": "A549"}, "ACHN": {"test_system": "ACHN"}, "CAKI-1": {"test_system": "CAKI-1"}, "CCRF-CEM": {"test_system": "CCRF-CEM"}, "COLO 205": {"test_system": "COLO 205"}, "DLD-1": {"test_system": "DLD-1"}, "DMS-114": {"test_system": "DMS-114"}, "DMS-273": {"test_system": "DMS-273"}, "EKVX": {"test_system": "EKVX"}, "HCC 2998": {"test_system": "HCC 2998"}, "HCT-116": {"test_system": "HCT-116"}, "HCT-15": {"test_system": "HCT-15"}, "HL-60": {"test_system": "HL-60"}, "HOP-18": {"test_system": "HOP-18"}, "HOP-62": {"test_system": "HOP-62"}, "HOP-92": {"test_system": "HOP-92"}, "HT-29": {"test_system": "HT-29"}, "IGROV-1": {"test_system": "IGROV-1"}, "K562": {"test_system": "K562"}, "KM-20L2": {"test_system": "KM-20L2"}, "KM12": {"test_system": "KM12"}, "LOX IMVI": {"test_system": "LOX IMVI"}, "LXFL 529": {"test_system": "LXFL 529"}, "M14": {"test_system": "M14"}, "M19-MEL": {"test_system": "M19-MEL"}, "MOLT-4": {"test_system": "MOLT-4"}, "Malme-3M": {"test_system": "Malme-3M"}, "NCI-H226": {"test_system": "NCI-H226"}, "NCI-H23": {"test_system": "NCI-H23"}, "NCI-H460": {"test_system": "NCI-H460"}, "NCI-H522": {"test_system": "NCI-H522"}, "OVCAR-3": {"test_system": "OVCAR-3"}, "OVCAR-4": {"test_system": "OVCAR-4"}, "OVCAR-5": {"test_system": "OVCAR-5"}, "OVCAR-8": {"test_system": "OVCAR-8"}, "RPMI-8226": {"test_system": "RPMI-8226"}, "RXF 393": {"test_system": "RXF 393"}, "RXF 631": {"test_system": "RXF 631"}, "SF-268": {"test_system": "SF-268"}, "SF-295": {"test_system": "SF-295"}, "SF-539": {"test_system": "SF-539"}, "SK-MEL-28": {"test_system": "SK-MEL-28"}, "SK-MEL-2": {"test_system": "SK-MEL-2"}, "SK-MEL-5": {"test_system": "SK-MEL-5"}, "SK-OV-3": {"test_system": "SK-OV-3"}, "SN12C": {"test_system": "SN12C"}, "SNB-19": {"test_system": "SNB-19"}, "SNB-75": {"test_system": "SNB-75"}, "SNB-78": {"test_system": "SNB-78"}, "SR": {"test_system": "SR"}, "SW-620": {"test_system": "SW-620"}, "TK-10": {"test_system": "TK-10"}, "U-251": {"test_system": "U-251"}, "UACC-257": {"test_system": "UACC-257"}, "UACC-62": {"test_system": "UACC-62"}, "UO-31": {"test_system": "UO-31"}, "XF498": {"test_system": "XF498"}},
  "note": "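Where inhibition never reached the appropriate level, the endpoint shown equals the highest concentration tested. Otherwise, values were interpolated linearly from a five-concentration, 48-hour dose response in 96-well plates. Here, GI50 denotes the concentration required for 50% inhibition of growth.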 Calls of active or inactive are those of the source. No stated cut-off is given here; in the data, active = GI50 up to about 1.1 µM and inactive = higher.",
  "data": [
    {"smiles": "O=c1/c(=C/c2ccco2)sc2nc3ccccc3n12", "values": [
      {"measurement": "GI50", "setting": "786-0", "value": "> 10 µM (inactive)"},
      {"measurement": "GI50", "setting": "A498", "value": "> 10 µM (inactive)"},
      {"measurement": "GI50", "setting": "A549", "value": "> 10 µM (inactive)"},
      {"measurement": "GI50", "setting": "ACHN", "value": "> 10 µM (inactive)"},
      {"measurement": "GI50", "setting": "CAKI-1", "value": "> 10 µM (inactive)"},
      {"measurement": "GI50", "setting": "CCRF-CEM", "value": "> 10 µM (inactive)"},
      {"measurement": "GI50", "setting": "COLO 205", "value": "> 100 µM (inactive)"},
      {"measurement": "GI50", "setting": "DLD-1", "value": "> 10 µM (inactive)"},
      {"measurement": "GI50", "setting": "DMS-114", "value": "> 10 µM (inactive)"},
      {"measurement": "GI50", "setting": "DMS-273", "value": "86.5 µM (inactive)"},
      {"measurement": "GI50", "setting": "EKVX", "value": "59.2 µM (inactive)"},
      {"measurement": "GI50", "setting": "HCC 2998", "value": "> 10 µM (inactive)"},
      {"measurement": "GI50", "setting": "HCT-116", "value": "> 10 µM (inactive)"},
      {"measurement": "GI50", "setting": "HCT-15", "value": "> 10", "unit": "µM"},
      {"measurement": "GI50", "setting": "HL-60", "value": "> 10 µM (inactive)"},
      {"measurement": "GI50", "setting": "HOP-18", "value": "> 100 µM (inactive)"},
      {"measurement": "GI50", "setting": "HOP-62", "value": "> 100 µM (inactive)"},
      {"measurement": "GI50", "setting": "HOP-92", "value": "> 10 µM (inactive)"},
      {"measurement": "GI50", "setting": "HT-29", "value": "> 10 µM (inactive)"},
      {"measurement": "GI50", "setting": "IGROV-1", "value": "> 10 µM (inactive)"},
      {"measurement": "GI50", "setting": "K562", "value": "> 10 µM (inactive)"},
      {"measurement": "GI50", "setting": "KM-20L2", "value": "> 10 µM (inactive)"},
      {"measurement": "GI50", "setting": "KM12", "value": "> 100 µM (inactive)"},
      {"measurement": "GI50", "setting": "LOX IMVI", "value": "> 10 µM (inactive)"},
      {"measurement": "GI50", "setting": "LXFL 529", "value": "> 10 µM (inactive)"},
      {"measurement": "GI50", "setting": "M14", "value": "> 10 µM (inactive)"},
      {"measurement": "GI50", "setting": "M19-MEL", "value": "> 10 µM (inactive)"},
      {"measurement": "GI50", "setting": "MOLT-4", "value": "> 10 µM (inactive)"},
      {"measurement": "GI50", "setting": "Malme-3M", "value": "> 10 µM (inactive)"},
      {"measurement": "GI50", "setting": "NCI-H226", "value": "> 10 µM (inactive)"},
      {"measurement": "GI50", "setting": "NCI-H23", "value": "> 10 µM (inactive)"},
      {"measurement": "GI50", "setting": "NCI-H460", "value": "> 10 µM (inactive)"},
      {"measurement": "GI50", "setting": "NCI-H522", "value": "> 10 µM (inactive)"},
      {"measurement": "GI50", "setting": "OVCAR-3", "value": "> 10 µM (inactive)"},
      {"measurement": "GI50", "setting": "OVCAR-4", "value": "> 10 µM (inactive)"},
      {"measurement": "GI50", "setting": "OVCAR-5", "value": "> 10 µM (inactive)"},
      {"measurement": "GI50", "setting": "OVCAR-8", "value": "> 10 µM (inactive)"},
      {"measurement": "GI50", "setting": "RPMI-8226", "value": "> 10 µM (inactive)"},
      {"measurement": "GI50", "setting": "RXF 393", "value": "63.5 µM (inactive)"},
      {"measurement": "GI50", "setting": "RXF 631", "value": "> 10 µM (inactive)"},
      {"measurement": "GI50", "setting": "SF-268", "value": "> 10 µM (inactive)"},
      {"measurement": "GI50", "setting": "SF-295", "value": "> 10 µM (inactive)"},
      {"measurement": "GI50", "setting": "SF-539", "value": "> 10 µM (inactive)"},
      {"measurement": "GI50", "setting": "SK-MEL-28", "value": "> 10 µM (inactive)"},
      {"measurement": "GI50", "setting": "SK-MEL-2", "value": "> 10 µM (inactive)"},
      {"measurement": "GI50", "setting": "SK-MEL-5", "value": "> 10 µM (inactive)"},
      {"measurement": "GI50", "setting": "SK-OV-3", "value": "> 100 µM (inactive)"},
      {"measurement": "GI50", "setting": "SN12C", "value": "> 10 µM (inactive)"},
      {"measurement": "GI50", "setting": "SNB-19", "value": "> 10 µM (inactive)"},
      {"measurement": "GI50", "setting": "SNB-75", "value": "27 µM (inactive)"},
      {"measurement": "GI50", "setting": "SNB-78", "value": "> 10 µM (inactive)"},
      {"measurement": "GI50", "setting": "SR", "value": "> 10 µM (inactive)"},
      {"measurement": "GI50", "setting": "SW-620", "value": "> 10 µM (inactive)"},
      {"measurement": "GI50", "setting": "TK-10", "value": "50 µM (inactive)"},
      {"measurement": "GI50", "setting": "U-251", "value": "> 10 µM (inactive)"},
      {"measurement": "GI50", "setting": "UACC-257", "value": "> 10 µM (inactive)"},
      {"measurement": "GI50", "setting": "UACC-62", "value": "> 10 µM (inactive)"},
      {"measurement": "GI50", "setting": "UO-31", "value": "> 10 µM (inactive)"},
      {"measurement": "GI50", "setting": "XF498", "value": "> 10 µM (inactive)"}
    ]}
  ]
}
